Results from patent US20240174662A1, “SMALL MOLECULE INHIBITORS OF SALT INDUCIBLE KINASES” (Janssen Biotech, Inc., priority 2021, published 2024).

Target: SIK2 (Homo sapiens (Human), UniProt Q9H0K1)
Assay: SIK2 Enzymatic Assay Version 2 (High ATP)
Assay type: biochemical
Details: 3 mM ATP and 200 μM HDAC5tide final, ADP-Glo Max luminescence
Procedure: All steps were performed at room temperature. Compounds were pre-plated onto an assay plate using an Echo acoustic dispenser (Labcyte, […] or […]) at 80 nL per well. Enzyme prepared in assay buffer at 6 nM (2× final concentration) was added at 4 μL per well using the Multidrop Combi (Thermo Fisher-used for all additions in this assay) to the assay plate, spun for 1 min at 1000 rpm (Allegra 6KR Beckman Coulter centrifuge), and incubated with compound for 30 minutes. […] ADP-Glo Max Reagent (prepared and aliquoted as per manufacturer instructions) was then added at 8 μL per well, spun and incubated for 2 hours. ADP-Glo Max Detection (prepared and aliquoted as per manufacturer instructions) was added at 8 μL per well to the assay plate, which was spun and incubated for 1 hour. The plate was then read on the Pherastar (BMG Labtech) using a luminescence read. Gain was set between 2200-2500.

Chain of SIK2 (Q9H0K1 whole entry, species assumed): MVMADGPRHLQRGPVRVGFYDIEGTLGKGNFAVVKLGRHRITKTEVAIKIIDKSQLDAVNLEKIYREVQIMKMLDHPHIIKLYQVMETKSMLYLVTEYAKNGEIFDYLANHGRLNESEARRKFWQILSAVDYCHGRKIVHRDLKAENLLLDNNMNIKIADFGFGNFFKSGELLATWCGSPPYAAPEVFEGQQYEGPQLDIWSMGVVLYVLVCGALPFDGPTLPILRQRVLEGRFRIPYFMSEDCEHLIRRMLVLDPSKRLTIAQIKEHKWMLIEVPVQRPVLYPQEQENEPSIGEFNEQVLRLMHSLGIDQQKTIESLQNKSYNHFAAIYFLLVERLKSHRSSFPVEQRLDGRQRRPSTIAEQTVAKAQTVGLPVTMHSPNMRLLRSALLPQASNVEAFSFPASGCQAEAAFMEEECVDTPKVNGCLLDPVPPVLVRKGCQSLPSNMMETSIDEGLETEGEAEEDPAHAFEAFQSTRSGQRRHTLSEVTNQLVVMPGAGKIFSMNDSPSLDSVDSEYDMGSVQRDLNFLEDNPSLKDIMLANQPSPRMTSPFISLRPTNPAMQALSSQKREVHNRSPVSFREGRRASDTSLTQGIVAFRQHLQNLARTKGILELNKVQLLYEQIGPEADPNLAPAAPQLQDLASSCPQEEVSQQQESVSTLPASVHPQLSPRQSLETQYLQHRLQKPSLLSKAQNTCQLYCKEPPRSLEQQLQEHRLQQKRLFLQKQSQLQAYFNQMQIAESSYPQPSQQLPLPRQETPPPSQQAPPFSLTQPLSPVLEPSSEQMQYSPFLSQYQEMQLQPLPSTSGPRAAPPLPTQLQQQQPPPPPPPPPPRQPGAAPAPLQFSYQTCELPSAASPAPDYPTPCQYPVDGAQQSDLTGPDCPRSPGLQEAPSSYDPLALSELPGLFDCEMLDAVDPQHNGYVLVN

| Compound | IC50 |
| --- | --- |
| Cc1cc(Nc2cc3cc(-c4c(OC[C@H]5COC6(CCCC6)O5)cnn4C)ccn3n2)nc(C)n1 (single isomer, unassigned) [Example 299, (*S)—N-(2,6-dimethylpyrimidin-4-yl)-5-[4-(6,9-dioxaspiro[4.4]nonan-8-ylmethoxy)-2-methyl-pyrazol-3-yl]pyrazolo[1,5-a]pyridin-2-amine] | 31.1 nM |
| Cc1cc(Nc2cc3cc(-c4c(OC[C@@H]5COC(C)(C)C5)cnn4C)ccn3n2)nc(C)n1 (single isomer, unassigned) [Example 307, (*R)—N-(2,6-dimethylpyrimidin-4-yl)-5-[4-[(5,5-dimethyltetrahydrofuran-3-yl)methoxy]-2-methyl-pyrazol-3-yl]pyrazolo[1,5-a]pyridin-2-amine] | 30.9 nM |
| C[C@H]1[C@H](COc2cnn(C)c2-c2ccn3nc(NC(=O)C4CC4)cc3c2)CN1C (single isomer, unassigned) [Example 337, (2*S, 3*R)—N-[5-[4-[(1,2-dimethylazetidin-3-yl)methoxy]-2-methyl-pyrazol-3-yl]pyrazolo[1,5-a]pyridin-2-yl]cyclopropanecarboxamide] | 54.4 nM |
| Cc1cc(Nc2cc3cc(-c4c(O[C@H]5C[C@H]6CC[C@@H]5O6)cnn4C)ccn3n2)nc(C)n1 (single isomer, unassigned) [Example 352, (1*S, 2*S, 4*R)—N-(2,6-dimethylpyrimidin-4-yl)-5-[2-methyl-4-(7-oxabicyclo[2.2.1]heptan-3-yloxy)pyrazol-3-yl]pyrazolo[1,5-a]pyridin-2-amine] | 66.8 nM |
| CO[C@H]1CNC[C@H]1Oc1noc(C)c1-c1ccn2nc(NC(=O)C3CC3)cc2c1 (single isomer, unassigned) [Example 385, (3*R,4*S)—N-[5-[3-(4-methoxypyrrolidin-3-yl)oxy-5-methyl-isoxazol-4-yl]pyrazolo[1,5-a]pyridin-2-yl]cyclopropanecarboxamide] | 124 nM |
| Cn1ncc(OC[C@@H](O)C(F)(F)F)c1-c1ccn2nc(NC(=O)C3CC3)cc2c1 (single isomer, unassigned) [Example 401, (*R)—N-[5-[2-methyl-4-(3,3,3-trifluoro-2-hydroxy-propoxy)pyrazol-3-yl]pyrazolo[1,5-a]pyridin-2-yl]cyclopropanecarboxamide] | 107 nM |
| CO[C@H]1CN(C)C[C@H]1Oc1cnn(C)c1-c1ccn2nc(NC(=O)C3CC3)cc2c1 (single isomer, unassigned) [Example 411, (3*R,4*S)—N-[5-[4-(4-methoxy-1-methyl-pyrrolidin-3-yl)oxy-2-methyl-pyrazol-3-yl]pyrazolo[1,5-a]pyridin-2-yl]cyclopropanecarboxamide] | 86.9 nM |
| C[C@H]1CNC[C@H]1Oc1cnn(C)c1-c1ccn2nc(NC(=O)C3CC3)cc2c1 (single isomer, unassigned) [Example 413, (3*S,4*S)—N-[5-[2-methyl-4-(4-methylpyrrolidin-3-yl)oxy-pyrazol-3-yl]pyrazolo[1,5-a]pyridin-2-yl]cyclopropanecarboxamide] | 140 nM |
| Cn1ncc(O[C@@H]2CNC[C@H]2O)c1-c1ccn2nc(NC(=O)C3CC3)cc2c1 (single isomer, unassigned) [Example 414, (3*R,4*R)—N-[5-[4-(4-hydroxypyrrolidin-3-yl)oxy-2-methyl-pyrazol-3-yl]pyrazolo[1,5-a]pyridin-2-yl]cyclopropanecarboxamide] | 98.7 nM |
| C[C@@H]1CN(C)C[C@@H]1Oc1cnn(C)c1-c1ccn2nc(NC(=O)C3CC3)cc2c1 (single isomer, unassigned) [Example 418, (3*R,4*R)—N-[5-[4-(1,4-dimethylpyrrolidin-3-yl)oxy-2-methyl-pyrazol-3-yl]pyrazolo[1,5-a]pyridin-2-yl]cyclopropanecarboxamide] | 102 nM |
| Cc1cc(Nc2cc3cc(-c4c(O[C@H]5C[C@@H]6CC[C@H]5O6)cnn4C)ccn3n2)nc(C)n1 (single isomer, unassigned) [Example 441, (1*R, 2*S, 4*S)—N-(2,6-dimethylpyrimidin-4-yl)-5-[2-methyl-4-(7-oxabicyclo[2.2.1]heptan-3-yloxy)pyrazol-3-yl]pyrazolo[1,5-a]pyridin-2-amine] | 72.9 nM |
| Cc1cc(Nc2cc3cc(-c4c(OC[C@@H]5CC6(CCCC6)CO5)cnn4C)ccn3n2)nc(C)n1 (single isomer, unassigned) [Example 443, (*S)—N-(2,6-dimethylpyrimidin-4-yl)-5-[2-methyl-4-(8-oxaspiro[4.4]nonan-7-ylmethoxy)pyrazol-3-yl]pyrazolo[1,5-a]pyridin-2-amine] | 74.3 nM |
| Cc1cc(Nc2cc3cc(-c4c(O[C@@H]5COC[C@@H]5C)cnn4C)ccn3n2)nc(C)n1 (single isomer, unassigned) [Example 445, (3*S,4*S)—N-(2,6-dimethylpyrimidin-4-yl)-5-[2-methyl-4-(4-methyltetrahydrofuran-3-yl)oxy-pyrazol-3-yl]pyrazolo[1,5-a]pyridin-2-amine] | 78.9 nM |

Continued, values first:

| IC50 | Compound |
| --- | --- |
| 5.5 nM | CO[C@]1(COc2cnn(C(F)F)c2-c2ccn3nc(Nc4cc(C)nc(C)n4)cc3c2)CCNC1 (single isomer, unassigned) [Example 261, (*R)-5-(1-(difluoromethyl)-4-((3-methoxypyrrolidin-3-yl)methoxy)-1H-pyrazol-5-yl)-N-(2,6-dimethylpyrimidin-4-yl)pyrazolo[1,5-a]pyridin-2-amine] |
| 4.7 nM | Cc1cc(Nc2cc3cc(-c4c(OC[C@@]5(F)CCNC5)cnn4C(F)F)ccn3n2)nc(C)n1 (single isomer, unassigned) [Example 262, (*R)-5-(1-(difluoromethyl)-4-((3-fluoropyrrolidin-3-yl)methoxy)-1H-pyrazol-5-yl)-N-(2,6-dimethylpyrimidin-4-yl)pyrazolo[1,5-a]pyridin-2-amine] |
| 40.2 nM | Cc1cc(Nc2cc3cc(-c4c(OC[C@]5(F)CCNC5)cnn4C(F)F)ccn3n2)nc(C)n1 (single isomer, unassigned) [Example 263, (*S)-5-(1-(difluoromethyl)-4-((3-fluoropyrrolidin-3-yl)methoxy)-1H-pyrazol-5-yl)-N-(2,6-dimethylpyrimidin-4-yl)pyrazolo[1,5-a]pyridin-2-amine] |
| 45.7 nM | Cc1cc(Nc2cc3cc(-c4c(OC[C@](C)(O)C5CC5)cnn4C)ccn3n2)nc(C)n1 (single isomer, unassigned) [Example 304, (*S)-2-cyclopropyl-1-[5-[2-[(2,6-dimethylpyrimidin-4-yl)amino]pyrazolo[1,5-a]pyridin-5-yl]-1-methyl-pyrazol-4-yl]oxy-propan-2-ol] |
| 59.1 nM | Cc1cc(Nc2cc3cc(-c4c(OC[C@H](O)C5(C)CC5)cnn4C)ccn3n2)nc(C)n1 (single isomer, unassigned) [Example 356, (1*R)-2-[5-[2-[(2,6-dimethylpyrimidin-4-yl)amino]pyrazolo[1,5-a]pyridin-5-yl]-1-methyl-pyrazol-4-yl]oxy-1-(1-methylcyclopropyl)ethanol] |
| 61.9 nM | Cc1cc(Nc2cc3cc(-c4c(OC[C@@H](O)C5(C)CC5)cnn4C)ccn3n2)nc(C)n1 (single isomer, unassigned) [Example 357, *S-1-methylcyclopropyl-2-[5-[2-[(2,6-dimethylpyrimidin-4-yl)amino]pyrazolo[1,5-a]pyridin-5-yl]-1-methyl-pyrazol-4-yl]oxy-ethanol] |
| 53.5 nM | Cc1cc(Nc2cc3cc(-c4c(OC[C@@H]5CC6(CCC6)CO5)cnn4C)ccn3n2)nc(C)n1 (single isomer, unassigned) [Example 358, *S—N-(2,6-dimethylpyrimidin-4-yl)-5-[2-methyl-4-(7-oxaspiro[3.4]octan-6-ylmethoxy)pyrazol-3-yl]pyrazolo[1,5-a]pyridin-2-amine] |
| 174 nM | Cc1cc(Nc2cc3cc(-c4c(OC[C@]5(O)CCOC5)cnn4C)ccn3n2)nc(C)n1 (single isomer, unassigned) [Example 439, (*S)-3-[[5-[2-[(2,6-dimethylpyrimidin-4-yl)amino]pyrazolo[1,5-a]pyridin-5-yl]-1-methyl-pyrazol-4-yl]oxymethyl]tetrahydrofuran-3-ol] |
| 70.1 nM | Cc1cc(Nc2cc3cc(-c4c(OC[C@]5(C)CCOC5)cnn4C)ccn3n2)nc(C)n1 (single isomer, unassigned) [Example 440, (*S)—N-(2,6-dimethylpyrimidin-4-yl)-5-[2-methyl-4-[(3-methyltetrahydrofuran-3-yl)methoxy]pyrazol-3-yl]pyrazolo[1,5-a]pyridin-2-amine] |
| 155 nM | Cc1cc(Nc2cc3cc(-c4c(OC[C@H](O)C5CCC5)cnn4C)ccn3n2)nc(C)n1 (single isomer, unassigned) [Example 444, (*R)-1-cyclobutyl-2-[5-[2-[(2,6-dimethylpyrimidin-4-yl)amino]pyrazolo[1,5-a]pyridin-5-yl]-1-methyl-pyrazol-4-yl]oxy-ethanol] |
| 69.7 nM | Cc1cc(Nc2cc3cc(-c4c(OC[C@]5(C)CCCO5)cnn4C)ccn3n2)nc(C)n1 (single isomer, unassigned) [Example 447, (*S)—N-(2,6-dimethylpyrimidin-4-yl)-5-[2-methyl-4-[(2-methyltetrahydrofuran-2-yl)methoxy]pyrazol-3-yl]pyrazolo[1,5-a]pyridin-2-amine] |
| 115 nM | Cc1cc(Nc2cc3cc(-c4c(OC[C@@H]5CC[C@@H]5O)cnn4C)ccn3n2)nc(C)n1 (single isomer, unassigned) [Example 448, (1*S,2*S)-2-[[5-[2-[(2,6-dimethylpyrimidin-4-yl)amino]pyrazolo[1,5-a]pyridin-5-yl]-1-methyl-pyrazol-4-yl]oxymethyl]cyclobutanol] |
